Legend:
Experiment in all cases: Test C pre-/postemergence greenhouse test
Assay type in all cases: in vivo
Conditions in all cases: scale 0 to 100
[1] = system: corn (Zea mays)
In short: (§1)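 Seeds sown in silt loam soil and sprayed preemergence with test chemicals in a non-phytotoxic solvent mixture containing surfactant. Postemergence plants, 2 to 18 cm (1- to 4-leaf stage), grown in peat/vermiculite planting medium and treated with the same formulation. Visual injury rated 0–100 versus untreated controls after 13 to 21 d in the greenhouse.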

[2] = system: crabgrass, large (Digitaria sanguinalis)
In short: as §1

[3] = system: galium (catchweed bedstraw, Galium aparine)
In short: as §1

[4] = system: johnsongrass (Sorghum halepense)
In short: as §1

[5] = system: kochia (Kochia scoparia)
In short: as §1

[6] = system: morningglory (Ipomoea coccinea)
In short: as §1

[7] = system: oilseed rape (Brassica napus)
In short: as §1

[8] = system: ragweed (common ragweed, Ambrosia elatior)
In short: as §1

[9] = system: ryegrass, Italian (Lolium multiflorum)
In short: as §1

[10] = system: soybean (Glycine max)
In short: as §1

[11] = system: surinam grass (Brachiaria decumbens)
In short: as §1

[12] = system: velvetleaf (Abutilon theophrasti)
In short: as §1

[13] = system: waterhemp (common waterhemp, Amaranthus rudis)
In short: as §1

Cc1cc(Cl)c2ccccc2c1-c1c(O)c(Cl)nn(C)c1=O [Cpd. No. 65]
100: Plant response rating, Galium ([3]; Preemergence, 125 g ai/ha) | Plant response rating, Morningglory ([6]; Postemergence, 31 g ai/ha) | Plant response rating, Morningglory ([6]; Postemergence, 62 g ai/ha) | Plant response rating, Morningglory ([6]; Postemergence, 125 g ai/ha) | Plant response rating, Oilseed Rape ([7]; Postemergence, 31 g ai/ha) | Plant response rating, Oilseed Rape ([7]; Postemergence, 62 g ai/ha) | Plant response rating, Oilseed Rape ([7]; Postemergence, 125 g ai/ha) | Plant response rating, Oilseed Rape ([7]; Preemergence, 125 g ai/ha) | Plant response rating, Ragweed ([8]; Postemergence, 31 g ai/ha) | Plant response rating, Ragweed ([8]; Preemergence, 125 g ai/ha) | Plant response rating, Surinam Grass ([11]; Preemergence, 125 g ai/ha) | Plant response rating, Velvetleaf ([12]; Postemergence, 62 g ai/ha) | Plant response rating, Velvetleaf ([12]; Postemergence, 125 g ai/ha) | Plant response rating, Velvetleaf ([12]; Preemergence, 125 g ai/ha)
5: Plant response rating, Corn ([1]; Preemergence, 62 g ai/ha) | Plant response rating, Johnsongrass ([4]; Preemergence, 31 g ai/ha) | Plant response rating, Johnsongrass ([4]; Preemergence, 62 g ai/ha) | Plant response rating, Oilseed Rape ([7]; Preemergence, 31 g ai/ha) | Plant response rating, Oilseed Rape ([7]; Preemergence, 61 g ai/ha) | Plant response rating, Soybean ([10]; Preemergence, 62 g ai/ha)
20: Plant response rating, Johnsongrass ([4]; Postemergence, 16 g ai/ha) | Plant response rating, Johnsongrass ([4]; Preemergence, 125 g ai/ha) | Plant response rating, Kochia ([5]; Preemergence, 61 g ai/ha)
55: Plant response rating, Kochia ([5]; Postemergence, 31 g ai/ha) | Plant response rating, Morningglory ([6]; Preemergence, 61 g ai/ha) | Plant response rating, Surinam Grass ([11]; Preemergence, 31 g ai/ha)
95: Plant response rating, Galium ([3]; Postemergence, 62 g ai/ha) | Plant response rating, Morningglory ([6]; Preemergence, 125 g ai/ha) | Plant response rating, Oilseed Rape ([7]; Postemergence, 16 g ai/ha) | Plant response rating, Ragweed ([8]; Preemergence, 31 g ai/ha) | Plant response rating, Ryegrass, Italian ([9]; Postemergence, 31 g ai/ha) | Plant response rating, Ryegrass, Italian ([9]; Postemergence, 62 g ai/ha) | Plant response rating, Ryegrass, Italian ([9]; Postemergence, 125 g ai/ha) | Plant response rating, Ryegrass, Italian ([9]; Preemergence, 62 g ai/ha) | Plant response rating, Ryegrass, Italian ([9]; Preemergence, 125 g ai/ha) | Plant response rating, Surinam Grass ([11]; Postemergence, 62 g ai/ha) | Plant response rating, Surinam Grass ([11]; Postemergence, 125 g ai/ha) | Plant response rating, Waterhemp ([13]; Postemergence, 62 g ai/ha) | Plant response rating, Waterhemp ([13]; Postemergence, 125 g ai/ha) | Plant response rating, Waterhemp ([13]; Preemergence, 125 g ai/ha)
75: Plant response rating, Corn ([1]; Postemergence, 125 g ai/ha) | Plant response rating, Johnsongrass ([4]; Postemergence, 62 g ai/ha) | Plant response rating, Kochia ([5]; Postemergence, 125 g ai/ha) | Plant response rating, Soybean ([10]; Postemergence, 31 g ai/ha) | Plant response rating, Velvetleaf ([12]; Preemergence, 62 g ai/ha) | Plant response rating, Waterhemp ([13]; Preemergence, 31 g ai/ha)
80: Plant response rating, Soybean ([10]; Postemergence, 62 g ai/ha) | Plant response rating, Waterhemp ([13]; Postemergence, 16 g ai/ha) | Plant response rating, Waterhemp ([13]; Preemergence, 61 g ai/ha)
85: Plant response rating, Galium ([3]; Preemergence, 31 g ai/ha) | Plant response rating, Johnsongrass ([4]; Postemergence, 125 g ai/ha) | Plant response rating, Kochia ([5]; Preemergence, 62 g ai/ha) | Plant response rating, Ryegrass, Italian ([9]; Postemergence, 16 g ai/ha) | Plant response rating, Soybean ([10]; Postemergence, 125 g ai/ha) | Plant response rating, Velvetleaf ([12]; Postemergence, 31 g ai/ha) | Plant response rating, Waterhemp ([13]; Preemergence, 62 g ai/ha)
60: Plant response rating, Crabgrass, Large ([2]; Preemergence, 62 g ai/ha) | Plant response rating, Velvetleaf ([12]; Preemergence, 31 g ai/ha)
90: Plant response rating, Galium ([3]; Postemergence, 16 g ai/ha) | Plant response rating, Galium ([3]; Postemergence, 31 g ai/ha) | Plant response rating, Kochia ([5]; Preemergence, 125 g ai/ha) | Plant response rating, Morningglory ([6]; Preemergence, 31 g ai/ha) | Plant response rating, Surinam Grass ([11]; Postemergence, 16 g ai/ha) | Plant response rating, Surinam Grass ([11]; Postemergence, 31 g ai/ha) | Plant response rating, Waterhemp ([13]; Postemergence, 31 g ai/ha)
98: Plant response rating, Galium ([3]; Postemergence, 125 g ai/ha) | Plant response rating, Galium ([3]; Preemergence, 62 g ai/ha) | Plant response rating, Morningglory ([6]; Postemergence, 16 g ai/ha) | Plant response rating, Morningglory ([6]; Preemergence, 62 g ai/ha) | Plant response rating, Oilseed Rape ([7]; Preemergence, 62 g ai/ha) | Plant response rating, Ragweed ([8]; Postemergence, 16 g ai/ha) | Plant response rating, Ragweed ([8]; Postemergence, 62 g ai/ha) | Plant response rating, Ragweed ([8]; Postemergence, 125 g ai/ha) | Plant response rating, Ragweed ([8]; Preemergence, 62 g ai/ha)
40: Plant response rating, Corn ([1]; Postemergence, 31 g ai/ha) | Plant response rating, Crabgrass, Large ([2]; Postemergence, 31 g ai/ha) | Plant response rating, Crabgrass, Large ([2]; Postemergence, 62 g ai/ha) | Plant response rating, Johnsongrass ([4]; Postemergence, 31 g ai/ha) | Plant response rating, Kochia ([5]; Postemergence, 16 g ai/ha) | Plant response rating, Ryegrass, Italian ([9]; Preemergence, 61 g ai/ha) | Plant response rating, Velvetleaf ([12]; Postemergence, 16 g ai/ha) | Plant response rating, Velvetleaf ([12]; Preemergence, 61 g ai/ha)
30: Plant response rating, Corn ([1]; Postemergence, 16 g ai/ha) | Plant response rating, Crabgrass, Large ([2]; Postemergence, 16 g ai/ha) | Plant response rating, Soybean ([10]; Preemergence, 125 g ai/ha)
15: Plant response rating, Corn ([1]; Preemergence, 125 g ai/ha) | Plant response rating, Surinam Grass ([11]; Preemergence, 61 g ai/ha)
65: Plant response rating, Corn ([1]; Postemergence, 62 g ai/ha) | Plant response rating, Crabgrass, Large ([2]; Preemergence, 125 g ai/ha) | Plant response rating, Kochia ([5]; Postemergence, 62 g ai/ha) | Plant response rating, Ragweed ([8]; Preemergence, 61 g ai/ha) | Plant response rating, Soybean ([10]; Postemergence, 16 g ai/ha)
70: Plant response rating, Crabgrass, Large ([2]; Postemergence, 125 g ai/ha) | Plant response rating, Kochia ([5]; Preemergence, 31 g ai/ha) | Plant response rating, Ryegrass, Italian ([9]; Preemergence, 31 g ai/ha) | Plant response rating, Surinam Grass ([11]; Preemergence, 62 g ai/ha)
0: Plant response rating, Corn ([1]; Preemergence, 31 g ai/ha) | Plant response rating, Corn ([1]; Preemergence, 61 g ai/ha) | Plant response rating, Crabgrass, Large ([2]; Preemergence, 31 g ai/ha) | Plant response rating, Crabgrass, Large ([2]; Preemergence, 61 g ai/ha) | Plant response rating, Galium ([3]; Preemergence, 61 g ai/ha) | Plant response rating, Johnsongrass ([4]; Preemergence, 61 g ai/ha) | Plant response rating, Soybean ([10]; Preemergence, 31 g ai/ha) | Plant response rating, Soybean ([10]; Preemergence, 61 g ai/ha)
